# Measurements as given in patent publication EP4104902B1, “COMPOUNDS AND M[…] SAME” (priority 2020, dated 2021).
# Tested on: recombinant rabies virus 1088 strain expressing Gaussia Luciferase (GLuc) (1088/GLuc)
# Format: cell-based
# Conditions: read-out: Anti-rabies activity
row,SMILES,IC50 [µM]
1,CC(C)CC[C@@H]1[C@@H]2CN[C@@]3(C(=O)NCCCNC(=N)N)[C@@H](C2)CN(Cc2ccc(F)cc2)[C@@H]13 (relative stereo) [IB-369],10 to 30
2,CC(C)CC[C@@H]1[C@@H]2CN[C@@]3(C(=O)NCC(C)C)[C@@H](C2)CN(CCO)[C@@H]13 (relative stereo) [IB-372],10 to 30
3,CC(C)CC[C@@H]1[C@@H]2CN[C@@]3(C(=O)NCC(C)C)[C@@H](C2)CN(CC(C)C)[C@@H]13 (relative stereo) [IB-378],< 5
4,CC(C)CCN1C[C@@H]2C[C@H]3CN[C@]2(C(=O)NCCC(=O)O)[C@@H]1[C@@H]3Cc1cccc2ccccc12 (relative stereo) [IB-381],10 to 30
5,CC(C)CNC(=O)[C@]12NC[C@@H]3C[C@H]1CN(CCC(=O)O)[C@H]2[C@@H]3CCc1ccccc1 (relative stereo) [IB-430],< 5
6,CC(C)CNC(=O)[C@]12NC[C@@H]3C[C@H]1CN(CCC(=O)O)[C@H]2[C@@H]3CO (relative stereo) [IB-431],10 to 30
7,CC(C)C[C@@H]1[C@@H]2CN[C@@]3(C(=O)NCc4ccc(O)cc4)[C@@H](C2)CN(CCc2ccccc2)[C@@H]13 (relative stereo) [IB-449],10 to 30
8,CC(C)C[C@@H]1[C@@H]2CN[C@@]3(C(=O)NCc4ccc(O)cc4)[C@@H](C2)CN(Cc2ccc(F)cc2)[C@@H]13 (relative stereo) [IB-458],10 to 30
9,O=C(NCCO)[C@]12NC[C@@H]3C[C@H]1CN(Cc1cccc4ccccc14)[C@H]2[C@@H]3Cc1ccc(O)cc1 (relative stereo) [IB-459],10 to 30
10,CC(C)CC[C@@H]1[C@@H]2CN[C@@]3(C(=O)NCCO)[C@@H](C2)CN(CCc2ccccc2)[C@@H]13 (relative stereo) [IB-461],10 to 30
11,CC(C)C[C@@H]1[C@@H]2CN[C@@]3(C(=O)NCc4ccc(O)cc4)[C@@H](C2)CN(Cc2ccccc2)[C@@H]13 (relative stereo) [IB-464],< 5
12,CC(C)CC[C@@H]1[C@@H]2CN[C@@]3(C(=O)NCc4ccc(O)cc4)[C@@H](C2)CN(CC(C)C)[C@@H]13 (relative stereo) [IB-465],10 to 30
13,O=C(NCc1ccc(O)cc1)[C@]12NC[C@@H]3C[C@H]1CN(CCO)[C@H]2[C@@H]3Cc1cccc2ccccc12 (relative stereo) [IB-470],10 to 30
14,NC(=O)CCNC(=O)[C@]12NC[C@@H]3C[C@H]1CN(CC1CCCCC1)[C@H]2[C@@H]3Cc1cccc2ccccc12 (relative stereo) [IB-522],10 to 30
15,NC(=O)CCNC(=O)[C@]12NC[C@@H]3C[C@H]1CN(Cc1ccc(F)cc1)[C@H]2[C@@H]3Cc1cccc2ccccc12 (relative stereo) [IB-525],10 to 30
16,O=C(NCc1cccc2ccccc12)[C@]12NC[C@@H]3C[C@H]1CN(CCO)[C@H]2[C@@H]3Cc1ccc(O)cc1 (relative stereo) [IB-527],10 to 30
17,CC(C)CC[C@@H]1[C@@H]2CN[C@@]3(C(=O)NCCc4ccccc4)[C@@H](C2)CN(CCO)[C@@H]13 (relative stereo) [IB-531],10 to 30
18,NC(=O)CCNC(=O)[C@]12NC[C@@H]3C[C@H]1CN(Cc1ccccc1)[C@H]2[C@@H]3CCc1ccccc1 (relative stereo) [IB-535],10 to 30
19,CC(C)CN1C[C@@H]2C[C@H]3CN[C@]2(C(=O)NCCc2ccccc2)[C@@H]1[C@@H]3Cc1ccc(O)cc1 (relative stereo) [IB-536],10 to 30
20,CC(C)CN1C[C@@H]2C[C@H]3CN[C@]2(C(=O)NCCC(N)=O)[C@@H]1[C@@H]3CCc1ccccc1 (relative stereo) [IB-539],10 to 30

row,SMILES,IC50 [µM]
1,CC(C)C[C@@H]1[C@@H]2CN[C@@]3(C(=O)NCCc4ccccc4)[C@@H](C2)CN(Cc2ccc(O)cc2)[C@@H]13 (relative stereo) [IB-540],10 to 30
2,CC(C)C[C@@H]1[C@@H]2CN[C@@]3(C(=O)NCc4cccc5ccccc45)[C@@H](C2)CN(Cc2ccc(O)cc2)[C@@H]13 (relative stereo) [IB-541],< 5
3,CC(C)CC[C@@H]1[C@@H]2CN[C@@]3(C(=O)NCCc4ccccc4)[C@@H](C2)CN(Cc2ccc(O)cc2)[C@@H]13 (relative stereo) [IB-544],10 to 30
4,O=C(NCc1ccc(F)cc1)[C@]12NC[C@@H]3C[C@H]1CN(CCO)[C@H]2[C@@H]3Cc1ccc(O)cc1 (relative stereo) [IB-549],10 to 30
5,CCCCCCNC(=O)[C@]12NC[C@@H]3C[C@H]1CN(CCC(C)C)[C@H]2[C@@H]3CC(C)C (relative stereo) [IB-551],< 5
6,CC(C)CCN1C[C@@H]2C[C@H]3CN[C@]2(C(=O)NCc2ccc(F)cc2)[C@@H]1[C@@H]3CC(C)C (relative stereo) [IB-553],< 5
7,CCCCCCNC(=O)[C@]12NC[C@@H]3C[C@H]1CN(Cc1ccccc1)[C@H]2[C@@H]3Cc1ccccc1 (relative stereo) [IB-562],10 to 30
8,O=C(NCc1ccc(F)cc1)[C@]12NC[C@@H]3C[C@H]1CN(Cc1ccccc1)[C@H]2[C@@H]3CCc1ccccc1 (relative stereo) [IB-568],10 to 30
9,CC(C)CCNC(=O)[C@]12NC[C@@H]3C[C@H]1CN(Cc1ccc(O)cc1)[C@H]2[C@@H]3Cc1ccccc1 (relative stereo) [IB-574],10 to 30
10,CC(C)CNC(=O)[C@]12NC[C@@H]3C[C@H]1CN(CCC(=O)O)[C@H]2[C@@H]3Cc1cccc2ccccc12 (relative stereo) [IB-575],10 to 30
11,CC(C)CCN1C[C@@H]2C[C@H]3CN[C@]2(C(=O)NCc2ccc(O)cc2)[C@@H]1[C@@H]3CCc1ccccc1 (relative stereo) [IB-576],10 to 30
12,CC(C)CCN1C[C@@H]2C[C@H]3CN[C@]2(C(=O)NCc2ccc(O)cc2)[C@@H]1[C@@H]3Cc1ccccc1 (relative stereo) [IB-577],10 to 30
13,CC(C)C[C@@H]1[C@@H]2CN[C@@]3(C(=O)NCc4ccc(O)cc4)[C@@H](C2)CN(CC2CCCCC2)[C@@H]13 (relative stereo) [IB-581],10 to 30
14,CC(C)CC[C@@H]1[C@@H]2CN[C@@]3(C(=O)NCc4ccc(O)cc4)[C@@H](C2)CN(Cc2ccc(F)cc2)[C@@H]13 (relative stereo) [IB-582],10 to 30
15,O=C(NCc1ccc(O)cc1)[C@]12NC[C@@H]3C[C@H]1CN(Cc1ccc(F)cc1)[C@H]2[C@@H]3Cc1ccccc1 (relative stereo) [IB-583],10 to 30
16,CC(C)C[C@@H]1[C@@H]2CN[C@@]3(C(=O)NCc4cccc5ccccc45)[C@@H](C2)CN(CCO)[C@@H]13 (relative stereo) [IB-585],10 to 30
17,O=C(NCCO)[C@]12NC[C@@H]3C[C@H]1CN(Cc1cccc4ccccc14)[C@H]2[C@@H]3Cc1ccccc1 (relative stereo) [IB-588],< 5
18,O=C(NCCO)[C@]12NC[C@@H]3C[C@H]1CN(CCc1ccccc1)[C@H]2[C@@H]3Cc1cccc2ccccc12 (relative stereo) [IB-593],10 to 30
19,O=C(NCCO)[C@]12NC[C@@H]3C[C@H]1CN(Cc1ccccc1)[C@H]2[C@@H]3Cc1cccc2ccccc12 (relative stereo) [IB-602],10 to 30
20,O=C(O)CCNC(=O)[C@]12NC[C@@H]3C[C@H]1CN(CCO)[C@H]2[C@@H]3Cc1cccc2ccccc12 (relative stereo) [IB-610],10 to 30

row,SMILES,IC50 [µM]
1,CC(C)CCN1C[C@@H]2C[C@H]3CN[C@]2(C(=O)NCCC(=O)O)[C@@H]1[C@@H]3CC(C)C (relative stereo) [IB-611],10 to 30
2,CC(C)CC[C@@H]1[C@@H]2CN[C@@]3(C(=O)NCCC(=O)O)[C@@H](C2)CN(CC2CCCCC2)[C@@H]13 (relative stereo) [IB-613],10 to 30
3,O=C(O)CCNC(=O)[C@]12NC[C@@H]3C[C@H]1CN(CC1CCCCC1)[C@H]2[C@@H]3Cc1cccc2ccccc12 (relative stereo) [IB-614],10 to 30
4,O=C(O)CCNC(=O)[C@]12NC[C@@H]3C[C@H]1CN(Cc1ccccc1)[C@H]2[C@@H]3Cc1cccc2ccccc12 (relative stereo) [IB-616],10 to 30
5,O=C(NCc1ccccc1)[C@]12NC[C@@H]3C[C@H]1CN(CCO)[C@H]2[C@@H]3CCc1ccccc1 (relative stereo) [IB-618],< 5
6,O=C(NCc1ccccc1)[C@]12NC[C@@H]3C[C@H]1CN(CCO)[C@H]2[C@@H]3Cc1ccccc1 (relative stereo) [IB-619],10 to 30
7,CC(C)CNC(=O)[C@]12NC[C@@H]3C[C@H]1CN(CCO)[C@H]2[C@@H]3Cc1cccc2ccccc12 (relative stereo) [IB-621],< 5
8,CC(C)CNC(=O)[C@]12NC[C@@H]3C[C@H]1CN(CCc1ccccc1)[C@H]2[C@@H]3Cc1ccc(O)cc1 (relative stereo) [IB-625],10 to 30
9,CC(C)CNC(=O)[C@]12NC[C@@H]3C[C@H]1CN(Cc1ccc(F)cc1)[C@H]2[C@@H]3CC(C)C (relative stereo) [IB-630],< 5
10,CC(C)CNC(=O)[C@]12NC[C@@H]3C[C@H]1CN(Cc1ccc(F)cc1)[C@H]2[C@@H]3Cc1ccc(O)cc1 (relative stereo) [IB-631],10 to 30
11,CC(C)CNC(=O)[C@]12NC[C@@H]3C[C@H]1CN(CC(C)C)[C@H]2[C@@H]3CCc1ccccc1 (relative stereo) [IB-633],< 5
12,CC(C)CCN1C[C@@H]2C[C@H]3CN[C@]2(C(=O)NCCC(N)=O)[C@@H]1[C@@H]3CCc1ccccc1 (relative stereo) [IB-636],10 to 30
13,NC(=O)CCNC(=O)[C@]12NC[C@@H]3C[C@H]1CN(CC1CCCCC1)[C@H]2[C@@H]3Cc1ccccc1 (relative stereo) [IB-637],< 5
14,O=C(NCCO)[C@]12NC[C@@H]3C[C@H]1CN(CCc1ccccc1)[C@H]2[C@@H]3Cc1ccccc1 (relative stereo) [IB-640],< 5
15,CC(C)C[C@@H]1[C@@H]2CN[C@@]3(C(=O)NCCO)[C@@H](C2)CN(CCc2ccccc2)[C@@H]13 (relative stereo) [IB-641],10 to 30
16,O=C(NCc1ccc(F)cc1)[C@]12NC[C@@H]3C[C@H]1CN(CCc1ccccc1)[C@H]2[C@@H]3Cc1ccc(O)cc1 (relative stereo) [IB-642],< 5
17,CC(C)C[C@@H]1[C@@H]2CN[C@@]3(C(=O)NCCO)[C@@H](C2)CN(Cc2cccc4ccccc24)[C@@H]13 (relative stereo) [IB-643],10 to 30
18,CC(C)C[C@@H]1[C@@H]2CN[C@@]3(C(=O)NCCO)[C@@H](C2)CN(CC2CCCCC2)[C@@H]13 (relative stereo) [IB-646],10 to 30
